Results taken from patent publication US20230167497A1, “METHODS OF IDENTIFYING MODULATORS OF THE IL-17 PATHWAY” (Janssen Pharmaceutica NV, priority 2020, published 2023).
pIC50: −log10 of the molar value.

What was measured:
[1] = system: rhIL-17A stimulated G-CSF production in normal human keratinocytes (NHK); experiment: NHK G-CSF assay with rhIL-17A stimulation; format: cell-based; conditions: for inhibition of IL-17 stimulated G-CSF production: concentrations tested, FIGS. 2A and 2C; for dose dependent G-CSF levels: various doses, FIG. 3
[2] = system: IL-β secretion by LPS stimulated hPBMCs; conditions: Wadsworth et al. 1999, read-out: IC50 (Literature), inhibition of IL-β secretion; cited from earlier work
[3] = system: TNFa secretion by LPS stimulated hPBMCs; conditions: Wadsworth et al. 1999, read-out: IC50 (Literature), inhibition of TNFa secretion; cited from earlier work
[4] = system: IL-17A-stimulated gene panel in NHKs; experiment: QuantiGene Plex gene panel expression, NHK stimulated with recombinant IL-17A; format: cell-based, human; conditions: NHKs stimulated with recombinant IL-17A, FIGS. 5A and 5B
Description: A panel of IL-17A-stimulated genes was identified, initially through microarray experiments and later confirmed by RT-PCR, to assess modulators of the IL-17 pathway as shown in Table 2. Expression levels of the genes in the panel were measured using QuantiGene® Plex Gene Expression assay in human keratinocytes treated with human recombinant IL-17A and compounds as described in Example 1.
After the 24 hour incubation with IL-17A with and without compounds, 50 μl Lysis buffer (QuantiGene, ThermoFisher) was added to each well containing 100 μl cells. The plate was covered and incubated for 30 minutes in a VorTemp set at 50-55° C., 170 rpm to lyse the cells. The plate was then kept frozen at −80° C. On the day of QuantiGene experiments, samples and reagents were prepared and assay was conducted according the manufacturer's protocol (QuantiGene, ThermoFisher). At the final step, the sample plate was read on a Luminex MagPix® instrument (Luminex; Austin, Tex.) for fluorescent intensity signals.
The raw expression value of a given gene (g) in a sample (S) was quantified as the median of raw fluorescent intensity of the corresponding probe. Normalization factor of each sample S was determined by the raw expression of four housekeeping genes, ACTB, GAPDH, HPRT1, and PPIB, as the ratio of the geometric mean (geomean) of the four housekeeping genes in sample S vs. the geomean of the four housekeeping genes among all samples. The normalized expression value of each gene in sample S was further quantified as the raw expression value divided by the normalization factor in sample S.
Changes in expression of gene g in keratinocytes in response to IL-17A stimulation was calculated as the ratio of the geomean of its normalized expression values in IL-17A stimulated samples vs. that in unstimulated samples. For each gene g, the relative expression value in sample S (Rel_Exp_S) was further determined by its normalized expression in sample S (Norm_Exp_S) and the geomeans of its normalized expression in IL-17A stimulated samples (GM_Norm_Exp_Stim) and unstimulated samples (GMNorm_Exp_UnStim), using formula as: Rel_Exp_S=(Norm_Exp_S−GM_Norm_Exp_UnStim)/(GM_Norm_Exp_Stim−GM_Norm_Exp_UnStim).

[5] = system: normal human keratinocytes (NHK); experiment: CellTiter-Glo Luminescent Cell Viability Assay of NHK cells; format: cell-based; conditions: FIG. 2B
Description: To test whether treatment with IL-17 or compounds affected cell viability, cells were tested with CellTiter-Glo® Luminescent Cell Viability Assay (Promega; Madison, Wis.) according to manufacturer's protocol.
The substrate vial and the buffer solution were equilibrated at room temperature before reconstitution. The lyophilized substrate solution was reconstituted by adding the appropriate volume of buffer to the substrate vial. After brief mixing, equal volumes of the reconstituted reagent were added to the volume of media in each well of the plate containing cells. The plate was shaken briefly to mix and incubated at room temperature for 10 minutes then luminescent signal was read using an Envision plate reader.
Percent cell viability was calculated as:
% viability=((Sample RLU/No stimulation Avg,RLU)*100).

[6] = system: Th17 conditioned media stimulated gene panel in NHKs; experiment: QuantiGene Plex gene panel expression, NHK stimulated with Th17 conditioned media; format: cell-based, human; conditions: FIG. 6
Description: (§1) Peripheral blood mononuclear cells (PBMCs) were isolated from human whole blood using Ficoll-Paque density gradient centrifugation (Ficoll-Paque, GE, 17-1440-03) using SepMate tubes (StemCell technologies, 85450). […] CD4+ T cells were isolated through manual magnetic labeling and cell separation (LS column, Miltenyi Biotec, 130-042-401) following vendor protocol (Miltenyi Biotec, 130 533). CD4+ T cells were seeded on 24-well plates at 2×10^6 cells/mL in 500 μL of RPMI Media (RPMI 1640, Hyclone, SH30096.01) supplemented with 10% FBS, penicillin-streptomycin (Sigma, P0781-100 ml), L-glutamine (Sigma, G7513-100ML), and 2-Mercaptoethanol (Gibco, 21985-023). […] The level of human IL-17A in Th17 conditioned media was determined using DuoSet ELISA kits following the vendor protocol (R&D Systems, DY317-05, DY5194-05, DY1335B-05). Human IL-17A was detected in Th17 conditioned media, while unstimulated, undifferentiated CD4+ T cells had no detectable level of IL-17A in the supernatant (FIG. 1).
A panel of IL-17A-stimulated genes was identified, initially through microarray experiments and later confirmed by RT-PCR, to assess modulators of the IL-17 pathway as shown in Table 2. Expression levels of the genes in the panel were measured using QuantiGene® Plex Gene Expression assay in human keratinocytes treated with human recombinant IL-17A and compounds as described in Example 1. […]

[7] = system: Th17 conditioned media stimulated G-CSF production in normal human keratinocytes (NHK); experiment: NHK G-CSF assay with Th17 conditioned media stimulation; format: cell-based; conditions: for inhibition of G-CSF production: NHK, Th17 conditioned media, FIG. 4A; for pIC50: Th17 conditioned media stimulated NHK (footnote 15)
Description: In order to test potential modulators of the IL-17 pathway, normal human keratinocytes (NHK) were incubated with either recombinant IL-17A or Th17 conditioned media and potential inhibitor compounds, and then levels of granulocyte colony-stimulating factor (G-CSF) in the cell supernatant were measured as described in detail below.
as §1, with “21985-023). Th17 polarization media was prepared in RPMI media and 250 μL was added to each well at a final concentration of: anti-CD3/anti-CD28 beads, prepared using T cell activation/expansion kit (Miltenyi Biotec, 130-091-441), at 2× cell number per well, anti-human interleukin-4 (IL-4) [10 ug/mL], anti-human interferon gamma (IFNγ) [10 ug/mL] antibodies (ThermoFisher, 16-7048-85, 16-7318-85), human IL-2 [60 U/mL] (Pepro Tech, 200-02), human IL-1β [10 ng/mL], human IL-23 [10 ng/mL], human IL-6 [50 ng/mL], and human TGFβ [12 ng/mL] (R&D Systems, 201-LB-010, 1290-IL-010, 206-IL-010, 240-B-010).” for “21985-023).”, “1). […]” for “1).”
After overnight culture, cell supernatant was carefully collected for G-CSF detection, and cells were further analyzed for viability or gene expression
G-CSF levels were measured using the Human G-CSF Homogeneous Time Resolved Fluorescence (HTRF) Assay kit (Cisbio, Cat. No. 63ADK055PEB1; Codolet, France) according to the manufacturer's protocol. G-CSF is detected in a sandwich assay format using different specific antibodies, one labeled with Eu3+-Cryptate (donor) and the second with d2 (acceptor). When the dyes are in close proximity, the excitation of the donor with a light source (laser or flash lamp) triggers a Fluorescence Resonance Energy Transfer (FRET) towards the acceptor, which in turn fluoresces at a specific wavelength (665 nm). […]

[8] = Homo sapiens, Keratinocyte, rhIL-17A stimulated NHK assay (footnote 14), 5 ng/ml rhIL-17A
[9] = rhIL-17A stimulated NHK assay (footnote 14), 5 ng/ml rhIL-17A

Molecule	pIC50 [1, 8]	inhibition of IL-17 stimulated G-CSF production ([1]; NHK, rhIL-17A)	dose dependent G-CSF levels ([1]; NHK, rhIL-17A)	expression of the gene panel [4]	expression of the gene panel [6]	pIC50 [1, 9]	inhibition of G-CSF production [7]	pIC50 [7]	other results
Cc1nonc1C(=O)N[C@H](c1cn2ncc([C@H](NC(=O)CCC(F)(F)F)C3CC3)cc2n1)C1CCC(F)(F)CC1 (stereo in doubt) [IL-17Ai-3]	7.14	–	–	–	–	–	–	–	–
O=C(CCC(F)(F)F)N[C@@H](c1ccn2cc([C@@H](NC(=O)c3conc3CCC(F)(F)F)C3CCC(F)(F)CC3)nc2n1)C1CC1 [IL-17Ai-5]	7.06	–	–	–	–	–	–	–	–
OCCC#Cc1nc(-c2ccc(F)cc2)c(-c2ccncc2)n1CCCc1ccccc1 [Modulator P38i, RWJ 67657]	–	did not inhibit	does not inhibit G-CSF levels	did not lead to an overall reduction in expression of the gene panel	–	–	–	–	pIC50 [2]: 7.96; pIC50 [3]: 8.52
Cc1nc(Nc2n[nH]c3c2CN(C(=O)N[C@H](CN(C)C)c2ccccc2)C3(C)C)c2sccc2n1 [PAKi, PF-3758309]	–	did not inhibit	some dose-dependent inhibition of G-CSF production with much lower potency compared to IL-17A inhibitors	did not lead to an overall reduction in expression of the gene panel	–	–	–	–	pIC50 ([1]; Homo sapiens, Keratinocyte): 5.64; G-CSF production ([1]; NHK, rhIL-17A, highest dose of 20 μM): reduced G-CSF production; cell toxicity ([5]; highest dose of 20 μM): toxic to the cells; cell toxicity ([5]; tested concentrations other than 20 μM PAK inhibitor): well tolerated
Brodalumab	–	inhibited G-CSF production at all concentrations tested	–	inhibited expression of the gene panel in a dose-dependent manner	inhibited expression of the gene panel in a dose-dependent manner	10.15	inhibited G-CSF production	10.09	–
Secukinumab	–	inhibited G-CSF production at all concentrations tested	–	inhibited expression of the gene panel in a dose-dependent manner	inhibited expression of the gene panel in a dose-dependent manner	9.70	inhibited G-CSF production	9.70	–
